Results as given in article PMC7091509 (Biophysical Journal, 2020).
Entries after “also recorded” stand apart in the source; their conditions may differ. Each block holds one substance with its values, some of them ahead of it.

What was measured:
[1] = tested on: first vinculin head domain (Vd1); assay: AFM single-molecule force spectroscopy; format: binding; settings: for relative mechanical stability of Vd1-VBS complex / ratio of unfolding to direct unbinding (UF/UB): shear-like pulling; for relative mechanical stability of Vd1-VBS complex: AFM experiments and simulations; for ratio of unfolding to direct unbinding (UF/UB): derived from AFM experiments
vinculin = settings: cited from earlier work
[2] = target: first vinculin head domain Vd1 (aa 1-258), SII-Vd1-ybbR (UniProt P18206); assay: AFM single-molecule force spectroscopy
[3] = C-terminal pulling, bimodal distribution, 800 nm/s

Chain of first vinculin head domain Vd1 (aa 1-258), SII-Vd1-ybbR (P18206 1-258): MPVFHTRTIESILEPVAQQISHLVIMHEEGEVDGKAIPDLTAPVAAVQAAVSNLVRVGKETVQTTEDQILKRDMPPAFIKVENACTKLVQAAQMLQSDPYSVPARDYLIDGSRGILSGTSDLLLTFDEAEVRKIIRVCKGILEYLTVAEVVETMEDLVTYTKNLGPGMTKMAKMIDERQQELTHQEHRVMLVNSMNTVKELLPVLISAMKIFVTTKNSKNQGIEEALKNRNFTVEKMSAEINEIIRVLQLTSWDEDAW

- ratio of unfolding to direct unbinding (UF/UB) [1]: ≈ 0.4
Substance: ILEAAKSIAAATSALVKAASAAQRE [Talin VBS58]
- relative mechanical stability of Vd1-VBS complex [1]: least stable complex; also recorded: low mechanical stability
- interaction in SPOT-peptide assay (vinculin): strong interaction

- direct unbinding in experiment ([1]; C-terminal (shear-like) pulling, 800 nm/s): almost no direct unbinding
- ratio of unfolding to direct unbinding (UF/UB) [1]: ≈ 2
Substance: GEMVGQARILAQATSDLVNAIKDA [Talin VBS11]
- rupture force of high-force population [1, 3]: > 60 pN
- rupture force of low-force population [1, 3]: < 60 pN
- high-force population ([1]; N-terminal pulling, 800 nm/s): disappeared
- unfolding pattern in AFM traces ([1]; shear-like pulling (C-terminal; N-terminal for α-actinin), 800 nm/s): shows a population of high-force traces with multiple unfolding peaks
- relative mechanical stability of Vd1-VBS complex [1]: formed the most stable complex

Continued, substance first:

Substance: talin VBS11 peptide with C-terminal cysteine (GSGS-VBS-GSGS-C) (from UniProt Q9Y490 820-843)
- UF/UB (ratio of unfolding to direct unbinding) [2]: 2
- rupture force, high-force population [2]: > 60 pN
- rupture force, low-force population [2]: < 60 pN

Substance: talin VBS11 peptide with N-terminal cysteine (C-GSGS-VBS-GSGS) (from UniProt Q9Y490 820-843)
- UF/UB (ratio of unfolding to direct unbinding) [2]: 0

Substance: talin VBS58 peptide with N-terminal cysteine (C-GSGS-VBS-GSGS) (from UniProt Q9Y490 2345-2369)
- UF/UB (ratio of unfolding to direct unbinding) [2]: 0

Substance: talin VBS58 peptide with C-terminal cysteine (GSGS-VBS-GSGS-C) (from UniProt Q9Y490 2345-2369)
- UF/UB (ratio of unfolding to direct unbinding) [2]: 0.4
- mean rupture force [2]: 45 to 60 pN
